The text below walks through data of ChEMBL document CHEMBL1134601, “Coumarins derivatives as dual inhibitors of acetylcholinesterase and monoamine oxidase” (J Med Chem, 2001).

The target of test [1] is Acetylcholinesterase (Electrophorus electricus) (UniProt O42275).
Description: Non-competitive inhibitory activity against acetylcholinesterase (AChE)
Test [2] shares this target. The source holds these as a separate data set.
Description: Competitive inhibitory activity against acetylcholinesterase (AChE)

Sequence of Acetylcholinesterase (Electrophorus electricus) (O42275 24-633 limits assumed): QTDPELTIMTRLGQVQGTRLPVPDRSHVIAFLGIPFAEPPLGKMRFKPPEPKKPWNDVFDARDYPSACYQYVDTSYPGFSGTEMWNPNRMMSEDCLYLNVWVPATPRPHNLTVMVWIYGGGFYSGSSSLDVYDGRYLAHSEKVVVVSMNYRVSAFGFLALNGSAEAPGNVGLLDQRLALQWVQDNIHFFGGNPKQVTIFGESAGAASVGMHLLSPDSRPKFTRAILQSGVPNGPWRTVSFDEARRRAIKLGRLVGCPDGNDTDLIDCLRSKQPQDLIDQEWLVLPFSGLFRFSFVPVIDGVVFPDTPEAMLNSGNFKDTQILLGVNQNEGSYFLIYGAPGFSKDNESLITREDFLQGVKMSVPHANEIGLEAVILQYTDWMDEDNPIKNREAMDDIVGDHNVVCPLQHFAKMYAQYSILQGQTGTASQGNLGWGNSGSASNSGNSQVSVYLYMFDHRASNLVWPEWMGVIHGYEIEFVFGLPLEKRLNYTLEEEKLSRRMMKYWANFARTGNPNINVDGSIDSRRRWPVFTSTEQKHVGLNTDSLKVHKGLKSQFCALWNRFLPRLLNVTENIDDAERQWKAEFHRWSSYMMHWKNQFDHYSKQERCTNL

In test [1], `Cc1c(C)c2ccc(OCc3ccccc3)cc2oc1=O` displayed a pKinc of 5.39.
In the case of `Cc1cc(=O)c2cc(OCc3ccccc3)ccc2o1`, the pKic in test [2] stood at 4.78. For the same molecule, the pKinc in test [1] amounted to 4.53.
Regarding `COc1ccc2c(C)c(C)c(=O)oc2c1`, the pKic in test [2] was 4.8. The pKinc in test [1] amounted to 4.56.
Turning to `O=c1ccoc2ccc(OCc3ccccc3)cc12`, the pKinc in test [1] came to 4.29.
In the case of `Cc1c(C)c2ccc(OCCc3ccccc3)cc2oc1=O`, the pKinc in test [1] was 4.8.
Turning to `Cc1c(C)c2ccc(OCc3cccc(O)c3)cc2oc1=O`, the pKinc in test [1] is 4.83.
With `Cc1ccccc1COc1ccc2c(C)c(C)c(=O)oc2c1`, in test [1], the pKinc was 4.68.
The molecule `Cc1c(C)c2ccc(OCc3cc(F)cc(F)c3)cc2oc1=O` had a pKinc in test [1] of 4.73.
Molecule `Cc1c(C)c2ccc(OCc3cccc(N)c3)cc2oc1=O` yielded a pKinc in test [1] of 4.74.
Take `Cc1c(C)c2ccc(O)cc2oc1=O`: the pKic in test [2] amounted to 4.54. The same molecule displayed a pKinc in test [1] of 4.
Regarding `Cc1c(C)c2ccc(OCc3ccc(F)c(F)c3)cc2oc1=O`, the pKinc in test [1] stood at 5.06.
